Test results as given in patent US8217045B2, “Organic compounds” (Novartis AG, priority 2007, dated 2012).
Changes are numbered by the printed parent chain.

What was measured:
[1] = target: T1, c-Abl (His-cAbl) (Homo sapiens, UniProt P00519); test: in vitro enzyme assay, wild-type Abl catalysed phosphorylation; type: biochemical; conditions: 16 nM His-cAbl, 10 μM ATP, 1 hour at 30° C.; read-out: IC50, inhibition of wild-type Abl catalysed phosphorylation
T1 construct: The His-tagged kinase domain of Abl is cloned and expressed; His tag; made in house; host or cells: baculovirus/Sf9
T1 sequence (P00519 242-493 limits assumed): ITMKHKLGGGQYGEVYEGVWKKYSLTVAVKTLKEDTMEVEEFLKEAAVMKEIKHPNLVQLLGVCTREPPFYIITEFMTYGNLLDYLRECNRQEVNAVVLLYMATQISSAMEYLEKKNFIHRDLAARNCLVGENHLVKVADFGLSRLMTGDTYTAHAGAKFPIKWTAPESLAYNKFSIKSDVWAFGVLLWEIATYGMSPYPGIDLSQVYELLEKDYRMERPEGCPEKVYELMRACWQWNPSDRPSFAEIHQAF
Experimental: (§1) Test for activity against wild-type and mutant Abl protein tyrosine kinase:
(§2) The test, an in vitro enzyme assay, is conducted as a filter binding assay as follows: The His-tagged kinase domain of Abl is cloned and expressed in the baculovirus/Sf9 system as described by Bhat et al., J. Biol. Chem. 1997; 272:16170-16175. A protein of 37 kD (Abl kinase) is purified by a two-step procedure over a Cobalt metal chelate column followed by an anion exchange column with a yield of 1-2 mg/L of Sf9 cells. The purity of the Abl kinase is >90% as judged by SDS-PAGE after Coomassie blue staining.
(§3) Based on the optimized assay conditions for the individual kinases a specific assay set-up was chosen. The assays were prepared and incubated on a liquid handling robot system using 384-well plates. To the assay plates containing 50 nL compound or control solutions, 4.5 μL of solution A consisting of the peptide substrate and ATP in assay buffer were added. The reactions were initiated by adding 4.5 μL of solution B consisting of the respective kinase in assay buffer. The reactions were incubated for 1 hour at 30° C. in a final reaction volume of 9.05 μL. Based on a generic assay buffer (50 mM HEPES pH7.5, 1 mM DTT, 0.02% Tween20, 0.02% BSA), following components were added depending on the chosen kinase: • c-Abl: 16 nM His-cAbl, 5 μM peptide substrate (FITC-Ahx-EAIYAAPFAKKK-CONH2), 10 mM MgCl2, 10 μM ATP • c-Abl-T315I: 2.4 nM His-cAbl-T315I, 5 μM peptide substrate (FITC-Ahx-EAIYAAPFAKKK-CONH2), 10 mM MgCl2, 10 μM ATP
(§4) After incubation, the kinase reactions were stopped by the addition of 16 μL of stop solution (100 mM HEPES, 5% DMSO, 0.1% Coating reagent, 10 mM EDTA, 0.015% Brij 35). Subsequently, the assay plates were transferred to a Caliper LabChip3000 reader and the unphosphorylated substrate and the phosphorylated product were separated and quantitated in a microfluidic chip.

[2] = target: T2, c-Abl-T315I (His-cAbl-T315I) (Homo sapiens, UniProt P00519, T315I); test: in vitro enzyme assay, T315I mutant Abl catalysed phosphorylation; type: biochemical; conditions: 2.4 nM His-cAbl-T315I, 10 μM ATP, 1 hour at 30° C.; read-out: IC50, inhibition of T315I mutant Abl catalysed phosphorylation
T2 construct: The His-tagged kinase domain of Abl is cloned and expressed; His tag; made in house; host or cells: baculovirus/Sf9
T2 sequence (P00519 242-493 T315I limits assumed): T1 sequence (P00519 242-493 limits assumed) with T74I
Experimental: as §1, §2, §3, §4

[3] = target: Bcr-Abl (Homo sapiens, UniProt P00519); test: Bcr-Abl phosphorylation capture ELISA in 32D-Bcr-Abl cells; type: cell-based, murine; conditions: 90 min at 37° C., read-out: IC50, reduction of Bcr-Abl phosphorylation
Description: 32D cl3 cells are obtained from the American Type Culture Collection (ATCC CRL11346) and Ba/F3 cells are obtained from the German Collection of Microorganisms and Cell Cultures (DSMZ, Braunschweig and DSMZ No. ACC 300) Palacios et al., Nature, 1984; 309:126 and Palacios et al., Cell, 1985:41:72.
Oncogene 1996; 12: 839-46; and Okuda K, Golub T R, Gilliland D G, Griffin J D. p210BCR-ABL, p190BCR-ABL, and TEL/ABL activate similar signal transduction pathways in hematopoietic cell lines. Oncogene 1996; 13:1147-52.)
The cells express the fusion Bcr-Abl protein with a constitutively active Abl kinase and proliferate growth factor independent. The cells are expanded in RPMI 1640 (AMIMED), 10% fetal calf serum (FCS), 2 mM glutamine (Gibco) (“complete medium”), and a working stock is prepared by freezing aliquots of 2×10^6 cells per vial in freezing medium (95% FCS, 5% DMSO (SIGMA)). After thawing, the cells are used during maximally 10-12 passages for the experiments. The antibody anti-Abl SH3 domain cat. #06-466 from Upstate Biotechnology is used for the ELISA. For detection of Bcr-Abl phosphorylation, the anti-phosphotyrosine antibody Ab PY20, labelled with alkaline phosphatase ([…]) from ZYMED (cat. #03-7722) is used. […]

| SMILES | IC50 [1] | melting point | further results |
| --- | --- | --- | --- |
| CC(=O)Nc1cc(Oc2ccc3c(C(=O)Nc4cc(-n5cnc(C)c5)cc(C(F)(F)F)c4)cccc3c2)ncn1 [Example 19, 6-[[6-(Acetylamino)-pyrimidin-4-yl]oxy]-naphthalene-1-carboxylic acid [3-(4-methyl-imidazol-1-yl)-5-trifluoromethyl-phenyl]-amide] | < 5 nM | – | – |
| Cc1cn(-c2cc(NC(=O)c3cccc4cc(Oc5ccnc(NC(=O)N(C)C)c5)ccc34)cc(C(F)(F)F)c2)cn1 [Example 5] | < 5 nM | > 138 °C | – |
| Cc1ncc(-c2cc(NC(=O)c3cccc4cc(Oc5ccnc(NC(=O)C6CC6)c5)ccc34)cc(C(F)(F)F)c2)[nH]1 [Example 15] | – | – | IC50 [2]: 36 to 57 nM |
| Cc1cn(-c2cc(NC(=O)c3cccc4cc(Oc5cc(NC(=O)C6CC6)ncn5)ccc34)cc(C(F)(F)F)c2)cn1 [Example 20, 6-[[6-(Cyclopropanecarbonyl)amino-pyrimidin-4-yl]oxy]-naphthalene-1-carboxylic acid [3-(4-methyl-imidazol-1-yl)-5-trifluoromethyl-phenyl]-amide] | – | 216 to 220 °C | – |
| Cc1cn(-c2cc(NC(=O)c3cccc4cc(Oc5ccnc(Nc6ccccn6)c5)ccc34)cc(C(F)(F)F)c2)cn1 [Example 6, 6-[[2-[(2-Pyridinyl)amino]-4-pyridinyl]oxy]-naphthalene-1-carboxylic acid [3-(4-methyl-1H-imidazol-1-yl)-5-(trifluoromethylphenyl)]amide] | – | 204 to 206 °C | IC50 [2]: 47 to 49 nM |
| Cc1cn(-c2cc(NC(=O)c3cccc4cc(Oc5ccnc(NC(=O)[C@@H]6CCCN6)c5)ccc34)cc(C(F)(F)F)c2)cn1 [Example 25, 6-[[2-[(2S)-2-Pyrrolidinecarbonyl]amino-pyridin-4-yl]oxy]-naphthalene-1-carboxylic acid [3-(4-methyl-1H-imidazol-1-yl)-5-(trifluoromethylphenyl)]amide] | – | – | IC50 [2]: 65 to 68 nM |
| CC(=O)Nc1cc(Oc2ccc3c(C(=O)Nc4ccc(CN5CCN(C)CC5)c(C(F)(F)F)c4)cccc3c2)ccn1 [Example 7, 6-[[2-(Acetylamino)-pyridin-4-yl]oxy]-naphthalene-1-carboxylic acid [4-[(4-methyl-1-piperazinyl)methyl]-3-trifluoromethyl-phenyl]amide] | < 5 nM | 112 to 114 °C | – |
| Cc1cn(-c2cc(NC(=O)c3cccc4cc(Oc5cc(N)ncn5)ccc34)cc(C(F)(F)F)c2)cn1 [Example 21, 6-[[6-Amino-pyrimidin-4-yl]oxy]-naphthalene-1-carboxylic acid [3-(4-methyl-imidazol-1-yl)-5-trifluoromethyl-phenyl]-amide] | – | > 148 °C | – |
| Cc1cn(-c2cc(NC(=O)c3cccc4cc(Oc5ccnc(NC(=O)C6CC6)c5)ccc34)cc(C(F)(F)F)c2)cn1 [Example 2, 6-[[2-(Cyclopropylcarbonyl)amino-pyridin-4-yl]oxy]-naphthalene-1-carboxylic acid [3-(4-methyl-1H-imidazol-1-yl)-5-(trifluoromethylphenyl)]amide] | – | 242 to 244 °C | IC50 [3]: 21 to 179 nM |
| Cc1cn(-c2cc(NC(=O)c3cccc4cc(Oc5ccnc(NC(=O)C(C)(C)O)c5)ccc34)cc(C(F)(F)F)c2)cn1 [Example 4, 6-[[2-(2-Hydroxy-2-methylpropylcarbonyl)amino-pyridin-4-yl]oxy]-naphthalene-1-carboxylic acid [3-(4-methyl-1H-imidazol-1-yl)-5-(trifluoromethylphenyl)]amide] | – | 248 to 251 °C | – |
| CC(=O)Nc1cc(Oc2ccc3c(C(=O)Nc4cc(-n5cnc(C)c5)cc(C(F)(F)F)c4)cccc3c2)ccn1 [Example 1, 6-[[2-(Acetylamino)-pyridin-4-yl]oxy]-naphthalene-1-carboxylic acid [3-(4-methyl-1H-imidazol-1-yl)-5-(trifluoromethylphenyl)]amide] | < 5 nM | – | – |
| Cc1cn(-c2cc(NC(=O)c3cccc4cc(Oc5ccnc(Nc6nccs6)c5)ccc34)cc(C(F)(F)F)c2)cn1 [Example 22, 6-[[N-[2-(4-methyl-2-thiazolyl)amino]-pyridin-4-yl]oxy]-naphthalene-1-carboxylic acid [3-(4-methyl-1H-imidazol-1-yl)-5-(trifluoromethylphenyl)]amide] | – | 277 to 282 °C | – |
| CN1CCN(Cc2ccc(NC(=O)c3cccc4cc(Oc5ccnc(NC(=O)C6CC6)c5)ccc34)cc2C(F)(F)F)CC1 [Example 8, 6-[[2-(Cyclopropylcarbonyl)amino-pyridin-4-yl]oxy]-naphthalene-1-carboxylic acid [4-[(4-methyl-1-piperazinyl)methyl]-3-trifluoromethyl-phenyl]amide] | < 5 nM | – | – |
| CN1C2CCCC1CN(Cc1ccc(NC(=O)c3cccc4cc(Oc5ccnc(NC(=O)C6CC6)c5)ccc34)cc1C(F)(F)F)C2 [Example 11] | < 5 nM | – | – |
| Cc1cn(-c2cc(NC(=O)c3cccc4cc(Oc5ccnc(NC(=O)C(C)(C)C)c5)ccc34)cc(C(F)(F)F)c2)cn1 [Example 3] | – | > 120 °C | – |
